# Test results taken from US20120245161A1 (SANOFI, priority 2009, published 2012).
# Structures can show the parent of a compound that is named as a salt. Where two headings read alike, the source gives them in different places.
# Tests used:
# [1] = tested on: β-tryptase; details: inhaled, cited from earlier work
# [2] = biological target: T1, recombinant human beta tryptase (Homo sapiens, UniProt P20231); assay: beta-Tryptase inhibition, chromogenic enzyme assay (substrate S2366, read at 405 nm); type: biochemical; details: Ki calculated from IC50: Ki=IC50/(1+[Substrate]/Km), 0.5 mM substrate, room temperature
# T1 construct: made in house; host or cells: yeast cells
# How it was run: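 Recombinant human beta tryptase (yeast-expressed; native lung enzyme also used), 50 ng/mL final, with 0.5 mM (2×Km) chromogenic substrate S2366; 30 min in the dark, room temperature, read at 405 nm. Compounds at 0.01-10 μM in duplicate for IC50; Ki=IC50/(1+[S]/Km).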
# T1 sequence (P20231 31-275): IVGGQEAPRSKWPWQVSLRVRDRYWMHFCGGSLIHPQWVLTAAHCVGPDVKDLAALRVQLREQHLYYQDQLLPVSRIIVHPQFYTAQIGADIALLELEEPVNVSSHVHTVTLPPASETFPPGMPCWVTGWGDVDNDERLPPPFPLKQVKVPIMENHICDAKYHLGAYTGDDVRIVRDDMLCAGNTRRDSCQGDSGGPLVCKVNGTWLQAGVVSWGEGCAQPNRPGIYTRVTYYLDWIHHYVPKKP
Structure (SMILES),Ki ([2]; Tryptase Ki (nM)) [nM],other results
NC(=O)[C@@H]1CCCN1C(=O)[C@H](CCCN=C(N)N)NC(=O)c1ccc2ccccc2c1O [APC-366],–,Clinical proof-of-concept for asthma ([1]; bronchial allergen challenge): Clinical proof-of-concept; development outcome / tolerability [1]: terminated due to bronchial irritation
"COCCn1cc(C(=O)N2CCC(c3cc(CN)ccc3F)CC2)c2c(C(=O)N3CCOCC3)cccc21.Cl [Example 59, [3-[4-(5-Aminomethyl-2-fluoro-phenyl)-piperidine-1-carbonyl]-1-(2-methoxy-ethyl)-1H-indol-4-yl]-morpholin-4-yl-methanone hydrochloride]",32,melting point: 142 to 147 °C
"COCCn1cc(C(=O)N2CCC(c3cc(CN)c(F)cc3F)CC2)c2cccc(C)c21 [Example 111, [4-(5-Aminomethyl-2,4-difluoro-phenyl)-piperidin-1-yl]-[1-(2-methoxy-ethyl)-7-methyl-1H-indol-3-yl]-methanone hydrochloride]",1020,–
"COCCn1cc(C(=O)N2CCC(c3ccc(F)c(CN)c3)CC2)c2cccc(C)c21 [Example 112, [4-(3-Aminomethyl-4-fluoro-phenyl)-piperidin-1-yl]-[1-(2-methoxy-ethyl)-7-methyl-1H-indol-3-yl]-methanone hydrochloride]",998,–
"COCCn1cc(C(=O)N2CCC(c3cccc(CN)n3)CC2)c2cccc(C)c21 [Example 113, (6-Aminomethyl-3′,4′,5′,6′-tetrahydro-2′H-[2,4]bipyridinyl-1′-yl)-[1-(2-methoxy-ethyl)-7-methyl-1H-indol-3-yl]-methanone dihydrochloride]",–,Ki ([2]; read-out: Tryptase Ki): 656 nM
"CCCCOc1ccc(CN)cc1C1CCN(C(=O)c2cn(CCOC)c3c(C)cccc23)CC1 [Example 114, [4-(5-Aminomethyl-2-butoxy-phenyl)-piperidin-1-yl]-[1-(2-methoxy-ethyl)-7-methyl-1H-indol-3-yl]-methanone hydrochloride]",526,–
"COCCn1cc(C(=O)N2CCC(c3cc(CN)ccc3OCCc3ccccc3)CC2)c2cccc(C)c21 [Example 115, [4-(5-Aminomethyl-2-phenethyloxy-phenyl)-piperidin-1-yl]-[1-(2-methoxy-ethyl)-7-methyl-1H-indol-3-yl]-methanone hydrochloride]",390,–
"COCCn1cc(C(=O)N2CCC(c3cc(F)cc(CN)c3)CC2)c2cccc(C)c21 [Example 116, [4-(5-Aminomethyl-3-fluoro-phenyl)-piperidin-1-yl]-[1-(2-methoxy-ethyl)-7-methyl-1H-indol-3-yl]-methanone hydrochloride]",746,–
"COCCn1cc(C(=O)N2CCC(c3cccc(CN)c3F)CC2)c2cccc(C)c21 [Example 117, [4-(3-Aminomethyl-2-fluoro-phenyl)-piperidin-1-yl]-[1-(2-methoxy-ethyl)-7-methyl-1H-indol-3-yl]-methanone hydrochloride]",756,–
"COCCn1cc(C(=O)N2CCC(c3ccc(Cl)c(CN)c3)CC2)c2cccc(C)c21 [Example 118, [4-(3-Aminomethyl-4-chloro-phenyl)-piperidin-1-yl]-[1-(2-methoxy-ethyl)-7-methyl-1H-indol-3-yl]-methanone hydrochloride]",832,–
"COCCn1cc(C(=O)N2CCC(c3cc(CN)ccn3)CC2)c2cccc(C)c21 [Example 119, (4-Aminomethyl-3′,4′,5′,6′-tetrahydro-2′H-[2,4′]bipyridinyl-1′-yl)-[1-(2-methoxy-ethyl)-7-methyl-1H-indol-3-yl]-methanone hydrochloride]",180,–
"COCCn1cc(C(=O)N2CCC(c3cc(CN)ccc3F)CC2)c2c(NC(=O)c3cccc4c3OCC4)cccc21 [Example 120, 2,3-Dihydro-benzofuran-7-carboxylic acid [3-[4-(5-aminomethyl-2-fluoro-phenyl)-piperidine-1-carbonyl]-1-(2-methoxy-ethyl)-1H-indol-4-yl]-amide hydrochloride]",3,–
"COCCn1cc(C(=O)N2CCC(c3cc(CN)ccc3F)CC2)c2c(NC(=O)c3cc4cccc(C)c4[nH]3)cccc21 [Example 121, 7-Methyl-1H-indole-2-carboxylic acid [3-[4-(5-aminomethyl-2-fluoro-phenyl)-piperidine-1-carbonyl]-1-(2-methoxy-ethyl)-1H-indol-4-yl]-amide dihydrochloride]",99,–
"COCCn1cc(C(=O)N2CCC(c3cc(CN)ccc3F)CC2)c2c(NC(=O)C3CCCN(C)C3)cccc21 (stereo not drawn) [Example 122, 1-Methyl-piperidine-3-carboxylic acid [3-[4-(5-aminomethyl-2-fluoro-phenyl)-piperidine-1-carbonyl]-1-(2-methoxy-ethyl)-1H-indol-4-yl]-amide hydrochloride]",44,–
"COCCn1cc(C(=O)N2CCC(c3cc(CN)ccc3F)CC2)c2c(C(=O)NC3CC3)cccc21 [Example 123, 3-[4-(5-Aminomethyl-2-fluoro-phenyl)-piperidine-1-carbonyl]-1-(2-methoxy-ethyl)-1H-indole-4-carboxylic acid cyclopropylamide hydrochloride]",50,–
"COCCn1cc(C(=O)N2CCC(c3cc(CN)ccc3F)CC2)c2c(NC(=O)c3cnco3)cccc21 [Example 124, Oxazole-5-carboxylic acid [3-[4-(5-aminomethyl-2-fluoro-phenyl)-piperidine-1-carbonyl]-1-(2-methoxy-ethyl)-1H-indol-4-yl]-amide hydrochloride]",8,–
